Measurements: patent publication US20220402916A1, “SMALL MOLECULE INHIBITORS OF KRAS G12C MUTANT” (Merck Sharp & Dohme Corp., priority 2019, published 2022)

How the values were obtained:
NCI-H358 cells = test: Cellular phospho-ERK assay; format: cell-based; conditions: Homo sapiens, NCI-H358, 2 h, NCI-H358 cells; 2 hour incubation; ratio of p-Erk vs total Erk; read-out: IC50
Protocol: NCI-H358 cells (ATCC® CRL-5807™) were cultured in T150 flask in growth medium (RPMI medium 1640-GlutaMAX™-1 (ThermoFisher Scientific 61870) containing 10% fetal bovine serum (ThermoFisher Scientific 10091148)). The cells were harvested in growth medium after TrypLE (ThermoFisher scientific 12604021) digestion and were seeded in 384-well collagen coated cell culture plate (Corning 356702) at a density of 15,000 cells/well, and incubated at 37° C., 5% CO2 overnight. The compound dose-response titrations were prepared and appropriate amounts of compounds were dispensed in 384-well intermediate plate using Echo 550 liquid handler. RPMI medium 1640-GlutaMAX™-I were added to the intermediate plate and transferred to 384-well cell culture plate, which was incubated at 37° C., 5% CO2 for 2 hours. After removal of medium from the plate, cells were lysed in lysis buffer from Alpha SureFire® Ultra™ Multiplex p-Erk and total Erk assay kit (PerkinElmer MPSU-PTERK) containing Halt™ Protease and Phosphotase inhibitor cocktail (ThermoFisher Scientific 78446) at room temperature with constant shaking at 300 rpm for 30 minutes. The cell lysates were then transferred to OptiPlate-384 plate (PerkinElmer 6005620) and the phosphorylation of Erk and total Erk levels were detected by Alpha SureFire Ultra Multiplex p-Erk kit (PerkinElmer MPSU-PTERK) following the manufacturer's protocol. Assay plates were read on an EnVision Multimode Plate Reader (PerkinElmer) and the ratio of p-Erk vs total Erk in each well was used as the final readout. Dose response curves were analyzed using a 4-parameter logistic model to calculate IC50 values using spotfire software.

[1] = target: T1, Biotinylated KRAS G12C protein (Homo sapiens, UniProt P01116, C118S/C51S/C80L/G12C); test: SOS-catalyzed nucleotide exchange assay; format: biochemical; conditions: for IC50: apparent potency, preincubation time of 60 minutes prior to addition of SOS; for inhibition at 10 µM: 10,000 nM, 60 minutes of preincubation prior to addition of SOS
T1 construct: 183 amino acids; biotin on K10
T1 sequence (P01116 with tags, fused parts or gaps isoform P01116-2 G12C/C51S/C80L/C118S): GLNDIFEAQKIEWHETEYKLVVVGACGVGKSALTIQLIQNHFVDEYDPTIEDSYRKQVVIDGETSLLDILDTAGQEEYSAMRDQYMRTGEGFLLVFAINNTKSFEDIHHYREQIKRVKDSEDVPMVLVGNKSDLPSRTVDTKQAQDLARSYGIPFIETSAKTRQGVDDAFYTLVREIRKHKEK
Protocol: Compounds are added to this complex, and then after 60 minute incubation time the mixture is treated with recombinant SOS protein and unlabeled GTP. Small molecule inhibitors stabilize the Bodipy-GDP complex whereas the untreated protein rapidly exchanges Bodipy-GDP for unlabeled GTP resulting in reduced TR-FRET signal. […] This mixture is then further diluted to 90 nM in an assay buffer (20 mM HEPES, 150 mM sodium chloride, 10 mM magnesium chloride, and 0.005% Tween) containing 15 nM of Terbium-Streptavidin (Invitrogen, catalog #PV3577) and 900 nM of Bodipy-GDP and incubated at room temperature for six hours. […] Each test compound (10 mM stock in DMSO) is diluted in DMSO to make a 10-point, 3-fold dilution series in a 384-well low dead volume microplate (Labcyte, catalog #LP-0200). Once titrations are made, 10 nL of the diluted compounds is acoustically dispensed into a 384-well assay plate (Corning, catalog #3820) using an Echo 550 (Labcyte). […] Each well then receives 3 μL of 240 nM recombinant human SOS protein and 9 mM GTP (Sigma, G8877) in assay buffer and is incubated at room temperature for 60 minutes. The time-resolved fluorescence resonance energy transfer signal for the assay plate is measured on an Envision (PerkinElmer) plate reader: Excitation filter=340 nm; emission1=495 nm; emission2=520 nm; dichroic mirror=D400/D505; delay time=100 μs. The signal of each well is determined as the ratio of the emission at 520 nm to that at 495 nm. […] The apparent effect as a function of compound concentration is fit to a four parameter logistic equation.

SMILES | IC50 (NCI-H358 cells) [nM] | IC50 [1] [nM] | inhibition at 10 µM [1] [%]
C=CC(=O)N1CCN(c2cc(C(=O)N[C@H](C)CN)nc3c2CCN(c2cccc4cccc(C)c24)C3)C[C@@H]1CC#N [Compound 67, 4-((S)-4-acryloyl-3-(cyanomethyl)piperazin-1-yl)-N—((R)-1-aminopropan-2-yl)-7-(8-methylnaphthalen-1-yl)-5,6,7,8-tetrahydro-1,7-naphthyridine-2-carboxamide] | 433 | 5.9 | 
C=C(F)C(=O)N1CCN(c2cc(C(=O)N[C@H](C)CN(C)C)nc3c2CCN(c2cccc4cccc(C)c24)C3)C[C@@H]1CC#N [Compound 78, 4-((S)-3-(cyanomethyl)-4-(2-fluoroacryloyl)piperazin-1-yl)-N-((R)-1-(dimethylamino)propan-2-yl)-7-(8-methylnaphthalen-1-yl)-5,6,7,8-tetrahydro-1,7-naphthyridine-2-carboxamide] | 1250 | 8.3 | 
C=CC(=O)N1CCN(c2cc(C(=O)N[C@H](C)CN)nc3c2CCN(c2cccc4ccccc24)C3)C[C@@H]1CC#N [Compound 61, 4-((S)-4-acryloyl-3-(cyanomethyl)piperazin-1-yl)-N—((R)-1-aminopropan-2-yl)-7-(naphthalen-1-yl)-5,6,7,8-tetrahydro-1,7-naphthyridine-2-carboxamide] | 1240 | 13 | 
C=CC(=O)N1CCN(c2cc(C(=O)N[C@H]3COC[C@@H]3N3CCN(C)CC3)nc3c2CCN(c2cccc4cccc(C)c24)C3)CC1 (racemic) [Compound 33, rac-4-(4-acryloylpiperazin-1-yl)-7-(8-methylnaphthalen-1-yl)-N-(trans-4-(4-methylpiperazin-1-yl)tetrahydrofuran-3-yl)-5,6,7,8-tetrahydro-1,7-naphthyridine-2-carboxamide] |  | 6650 | 
C=CC(=O)N1CCN(c2cc(C(=O)N[C@H]3COC[C@@H]3N3CCOCC3)nc3c2CCN(c2cccc4cccc(C)c24)C3)CC1 (racemic) [Compound 35, rac-4-(4-acryloylpiperazin-1-yl)-7-(8-methylnaphthalen-1-yl)-N-(trans-4-morpholinotetrahydrofuran-3-yl)-5,6,7,8-tetrahydro-1,7-naphthyridine-2-carboxamide] |  |  | 39
C=CC(=O)N1CCN(c2cc(C(=O)NC3CN(C)C3)nc3c2CCN(c2cccc4cccc(C)c24)C3)CC1 [Compound 48, 4-(4-acryloylpiperazin-1-yl)-N-(1-methylazetidin-3-yl)-7-(8-methylnaphthalen-1-yl)-5,6,7,8-tetrahydro-1,7-naphthyridine-2-carboxamide] |  | 7290 | 
C=CC(=O)N1CCN(c2cc(C(=O)N3CCCC3CN3CCCCC3)nc3c2CCN(c2cccc4cccc(C)c24)C3)CC1 (racemic) [Compound 44, rac-1-(4-(7-(8-methylnaphthalen-1-yl)-2-(2-(piperidin-1-ylmethyl)pyrrolidine-1-carbonyl)-5,6,7,8-tetrahydro-1,7-naphthyridin-4-yl)piperazin-1-yl)prop-2-en-1-one] |  | 7870 | 
C=CC(=O)N1CCN(c2cc(C(=O)N[C@H]3CCN(C)C3)nc3c2CCN(c2cccc4cccc(C)c24)C3)CC1 [Compound 49, (S)-4-(4-acryloylpiperazin-1-yl)-7-(8-methylnaphthalen-1-yl)-N-(1-methylpyrrolidin-3-yl)-5,6,7,8-tetrahydro-1,7-naphthyridine-2-carboxamide] |  | 2180 | 
C=CC(=O)N1CCN(c2cc(C(=O)NCCCN(C)C)nc3c2CCN(c2cccc4ccccc24)C3)CC1 [Compound 4, 4-(4-acryloylpiperazin-1-yl)-N-(3-(dimethylamino)propyl)-7-(naphthalen-1-yl)-5,6,7,8-tetrahydro-1,7-naphthyridine-2-carboxamide] |  | 9400 | 23

The remaining lines, values ahead:

IC50 (NCI-H358 cells) [nM] | IC50 [1] [nM] | inhibition at 10 µM [1] [%] | SMILES
1740 | 8.3 |  | C=CC(=O)N1CCN(c2cc(C(=O)NCC3CCCCN3)nc3c2CCN(c2cccc4cccc(C)c24)C3)C[C@@H]1CC#N (mixture of isomers) [Compound 99, 4-((S)-4-acryloyl-3-(cyanomethyl)piperazin-1-yl)-7-(8-methylnaphthalen-1-yl)-N-(((R)-piperidin-2-yl)methyl)-5,6,7,8-tetrahydro-1,7-naphthyridine-2-carboxamide, as a mixture with 4-((S)-4-acryloyl-3-(cyanomethyl)piperazin-1-yl)-7-(8-methylnaphthalen-1-yl)-N-(((S)-piperidin-2-yl)methyl)-5,6,7,8-tetrahydro-1,7-naphthyridine-2-carboxamide]
5880 | 22 |  | C=CC(=O)N1CCN(c2cc(C(=O)NC3(CC#N)CNC3)nc3c2CCN(c2cccc4cccc(C)c24)C3)C[C@@H]1CC#N [Compound 100, (S)-4-(4-acryloyl-3-(cyanomethyl)piperazin-1-yl)-N-(3-(cyanomethyl)azetidin-3-yl)-7-(8-methylnaphthalen-1-yl)-5,6,7,8-tetrahydro-1,7-naphthyridine-2-carboxamide]
24400 | 1840 |  | C=CC(=O)N1CCN(c2cc(C(=O)Nc3ccccc3N3CCNCC3)nc3c2CCN(c2cccc4cccc(C)c24)C3)C[C@@H]1CC#N [Compound 93, (S)-4-(4-acryloyl-3-(cyanomethyl)piperazin-1-yl)-7-(8-methylnaphthalen-1-yl)-N-(2-(piperazin-1-yl)phenyl)-5,6,7,8-tetrahydro-1,7-naphthyridine-2-carboxamide]
1800 | 4.5 |  | C=CC(=O)N1CCN(c2cc(C(=O)NC3(CC)CCNC3)nc3c2CCN(c2cccc4cccc(C)c24)C3)C[C@@H]1CC#N (mixture of isomers) [Compound 101, 4-((S)-4-acryloyl-3-(cyanomethyl)piperazin-1-yl)-N-((R)-3-ethylpyrrolidin-3-yl)-7-(8-methylnaphthalen-1-yl)-5,6,7,8-tetrahydro-1,7-naphthyridine-2-carboxamide, as a mixture with 4-((S)-4-acryloyl-3-(cyanomethyl)piperazin-1-yl)-N-((S)-3-ethylpyrrolidin-3-yl)-7-(8-methylnaphthalen-1-yl)-5,6,7,8-tetrahydro-1,7-naphthyridine-2-carboxamide]
6360 | 91 |  | C=CC(=O)N1CCN(c2cc(C(=O)NC[C@@H]3CC(F)(F)CN3)nc3c2CCN(c2cccc4cccc(C)c24)C3)C[C@@H]1CC#N [Compound 80, 4-((S)-4-acryloyl-3-(cyanomethyl)piperazin-1-yl)-N-(((S)-4,4-difluoropyrrolidin-2-yl)methyl)-7-(8-methylnaphthalen-1-yl)-5,6,7,8-tetrahydro-1,7-naphthyridine-2-carboxamide]
324 |  |  | C=CC(=O)N1CCN(c2cc(C(=O)NCC3CCCN3C)nc3c2CCN(c2cccc4cccc(C)c24)C3)C[C@@H]1CC#N (mixture of isomers) [Compound 82, 4-((S)-4-acryloyl-3-(cyanomethyl)piperazin-1-yl)-7-(8-methylnaphthalen-1-yl)-N-(((R)-1-methylpyrrolidin-2-yl)methyl)-5,6,7,8-tetrahydro-1,7-naphthyridine-2-carboxamide, as a mixture with 4-((S)-4-acryloyl-3-(cyanomethyl)piperazin-1-yl)-7-(8-methylnaphthalen-1-yl)-N-(((S)-1-methylpyrrolidin-2-yl)methyl)-5,6,7,8-tetrahydro-1,7-naphthyridine-2-carboxamide]
